Target: Toll-like receptor 7 (Homo sapiens (Human), UniProt Q9NYK1)
Experiment: Toll-like receptor 7 in vitro receptor binding activity screen (HEK-blue hTLR7 cell, alkaline phosphatase/Quanti-Blue readout)
Assay type: cell-based
Details: HEK-blue hTLR7 cell, 24 h; read-out: TLR7 EC50
Experimental: Toll-Like Receptor 7 and Toll-Like Receptor 8 In Vitro Receptor Binding Activity Screen
HEK-blue hTLR7 cell and HEK-blue hTLR8 cell (available from InvivoGen)
1. Preparation of 96-well compound plate:
The compounds were gradient diluted with DMSO in 3-fold using liquid work station POD starting at a concentration of 10 mmol/L and 10 points were diluted (2nd column to 11th column, and each point was duplicated). At 12th column, 1 μL of 5 mg/mL positive compound R848 was added as positive control; and at 1st column, 1 μL of DMSO was added as negative control. Each well contained 1 μL of DMSO.
2. The cells in culture flask were collected and the cell density was diluted to 250,000 cells/mL.
3. 200 μL (50,000 cells/well) of cell suspension was added into prepared compound plate and the final concentration of DMSO in each well was 0.5%.
4. The culture plates containing cells and the compounds were incubated in CO2 incubator for 24 h at 37° C., 5% CO2.
5. After 24 h incubation, 20 μL of supernatant was removed from each well to a 96-well transparent assay plate. To each well of the assay plate was added 180 μL of Quanti-Blue reagent and the plate was incubated in an incubator at 37° C., 5% CO2 for 1 h.
6. After 1 h, the content of alkaline phosphatase in 20 μL of supernatant was determined using Microplate Reader OD650.
7. EC50 of each compound was obtained with Prism software.

Toll-like receptor 7, sequence (Q9NYK1 27-1049): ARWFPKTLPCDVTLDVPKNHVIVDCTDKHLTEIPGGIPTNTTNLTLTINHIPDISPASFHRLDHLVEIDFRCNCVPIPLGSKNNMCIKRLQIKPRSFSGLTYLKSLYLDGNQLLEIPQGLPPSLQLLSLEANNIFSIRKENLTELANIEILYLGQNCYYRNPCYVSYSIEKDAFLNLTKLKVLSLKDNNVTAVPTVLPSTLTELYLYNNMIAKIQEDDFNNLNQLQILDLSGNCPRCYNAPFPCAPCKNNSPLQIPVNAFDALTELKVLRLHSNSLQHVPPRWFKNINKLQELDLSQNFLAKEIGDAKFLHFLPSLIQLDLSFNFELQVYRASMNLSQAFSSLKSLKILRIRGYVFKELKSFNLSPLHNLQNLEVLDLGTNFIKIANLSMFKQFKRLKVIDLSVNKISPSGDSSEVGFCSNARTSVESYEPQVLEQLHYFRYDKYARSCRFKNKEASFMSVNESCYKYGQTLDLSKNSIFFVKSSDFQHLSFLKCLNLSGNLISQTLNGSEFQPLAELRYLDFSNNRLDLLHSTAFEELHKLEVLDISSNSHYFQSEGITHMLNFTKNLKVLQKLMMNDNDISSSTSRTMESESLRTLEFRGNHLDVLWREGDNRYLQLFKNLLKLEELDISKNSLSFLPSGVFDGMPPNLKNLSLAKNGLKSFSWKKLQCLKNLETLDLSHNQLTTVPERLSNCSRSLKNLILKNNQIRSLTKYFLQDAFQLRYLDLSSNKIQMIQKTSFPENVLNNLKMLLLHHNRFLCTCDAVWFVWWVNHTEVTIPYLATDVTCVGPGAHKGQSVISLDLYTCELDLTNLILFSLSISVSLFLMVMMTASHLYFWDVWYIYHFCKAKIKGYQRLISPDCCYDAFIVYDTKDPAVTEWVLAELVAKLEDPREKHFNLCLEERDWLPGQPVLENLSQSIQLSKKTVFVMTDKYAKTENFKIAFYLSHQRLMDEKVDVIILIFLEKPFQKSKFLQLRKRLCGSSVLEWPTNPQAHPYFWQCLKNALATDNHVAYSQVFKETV

Row | SMILES | EC50
1 | CCCCOc1nc(N)c2[nH]cc(Cc3cccc(CN4CCN(C)CC4)c3)c2n1 [Example 1, 2-butoxy-7-(3-((4-methylpiperazine-1-yl)methyl)benzyl)-5H-pyrrolo[3,2-d]pyrimidine-4-amine] | 1 to 50 µM
2 | CCCCOc1nc(N)c2[nH]cc(Cc3cccc(CN4CCOCC4)c3)c2n1 [Example 2, 2-butoxy-7-(3-(morpholinomethyl)benzyl)-5H-pyrrolo[3,2-d]pyrimidine-4-amine] | 1 to 50 µM
3 | CCCCOc1nc(N)c2[nH]cc(Cc3cccc(CN)c3)c2n1 [Example 3, 7-(3-(aminomethyl)benzyl)-2-butoxy-5H-pyrrolo[3,2-d]pyrimidine-4-amine] | 1 to 50 µM
4 | CCCCOc1nc(N)c2[nH]cc(Cc3ccc(CN4CCC(F)(F)C4)cc3)c2n1 [Example 5] | 1 to 50 µM
5 | CCCCOc1nc(N)c2[nH]cc(Cc3ccc(CN4CCC(F)C4)cc3)c2n1 (centres unmarked) [Example 6, 2-butoxy-7-(4-((3-fluoropyrrolidine-1-yl)methyl)benzyl)-5H-pyrrolo[3,2-d]pyrimidine-4-amine] | 0.1 to 1 µM
6 | CCCCOc1nc(N)c2[nH]cc(Cc3ccc(CN4CCC(O)C4)cc3)c2n1 (centres unmarked) [Example 7, 1-(4-((4-amino-2-butoxy-5H-pyrrolo[3,2-d]pyrimidine-7-1)methyl)benzyl)pyrrolidine-3-ol] | 0.1 to 1 µM
7 | CCCCOc1nc(N)c2[nH]cc(Cc3ccc(CN4CCCCC4)cc3)c2n1 [Example 8, 2-butoxy-7-(4-(piperidine-1-ylmethyl)benzyl)-5H-pyrrolo[3,2-d]pyrimidine-4-amine] | 0.1 to 1 µM
8 | CCCCOc1nc(N)c2[nH]cc(Cc3ccc(CN4CCOCC4)cc3)c2n1 [Example 9, 2-butoxy-7-(4-(morpholinomethyl)benzyl)-5H-pyrrolo[3,2-d]pyrimidine-4-amine] | 1 to 50 µM
9 | CCCCOc1nc(N)c2[nH]cc(Cc3ccc(CN4CCN(C)CC4)cc3)c2n1 [Example 10, 2-butoxy-7-(4-((4-methylpiperazine-1-yl)methyl)benzyl)-5H-pyrrolo[3,2-d]pyrimidine-4-amine] | 1 to 50 µM
10 | CCCCOc1nc(N)c2[nH]cc(Cc3ccc(CN(C)C)cc3)c2n1 [Example 11, 2-butoxy-7-(4-((dimethylamino)methyl)benzyl)-5H-pyrrolo[3,2-d]pyrimidine-4-amine] | 0.1 to 1 µM
11 | CCCCOc1nc(N)c2[nH]cc(Cc3ccc(CN(CC)CC)cc3)c2n1 [Example 12, 2-butoxy-7-(4-((diethylamino)methyl)benzyl)-5H-pyrrolo[3,2-d]pyrimidine-4-amine] | 0.1 to 1 µM
12 | CCCCOc1nc(N)c2[nH]cc(Cc3ccc(CN(CCC)CCC)cc3)c2n1 [Example 13, 2-butoxy-7-(4-((dipropylamino)methyl)benzyl)-5H-pyrrolo[3,2-d]pyrimidine-4-amine] | 0.1 to 1 µM
13 | CCCCOc1nc(N)c2[nH]cc(Cc3ccc(CN4CCC4)cc3)c2n1 [Example 14, 7-(4-(azetidin-1-ylmethyl)benzyl)-2-butoxy-5H-pyrrolo[3,2-d]pyrimidine-4-amine] | 0.1 to 1 µM
14 | CCCCOc1nc(N)c2[nH]cc(Cc3ccc(CN4CC(OC)C4)cc3)c2n1 [Example 15, 2-butoxy-7-(4-((3-methoxylazetidin-1-yl)methyl)benzyl)-5H-pyrrolo[3,2-d]pyrimidine-4-amine] | 0.1 to 1 µM
15 | CCCCOc1nc(N)c2[nH]cc(Cc3ccc(CN4CCCN(C)CC4)cc3)c2n1 [Example 16, 2-butoxy-7-(4-((4-methyl-1,4-diazepan-1-yl)methyl)benzyl)-5H-pyrrolo[3,2-d]pyrimidine-4-amine] | 0.1 to 1 µM
16 | CCCCOc1nc(N)c2[nH]cc(Cc3ccc(CN4CC(C)OC(C)C4)cc3)c2n1 (centres unmarked) [Example 17, 2-butoxy-7-(4-((2,6-dimethylmorpholinyl)methyl)benzyl)-5H-pyrrolo[3,2-d]pyrimidine-4-amine] | 0.1 to 1 µM
17 | CCCCOc1nc(N)c2[nH]cc(Cc3ccc(CN4C[C@@H]5C[C@H]4CO5)cc3)c2n1 [Example 18, 7-(4-((1 S,4S)-2-oxa-5-azabicyclo[2.2.1]heptane-5-ylmethyl)benzyl)-2-butoxy-5H-pyrrolo[3,2-d]pyrimidine-4-amine] | 0.1 to 1 µM

Reference: patent US9962388B2, “Pyrrolopyrimidine compounds used as TLR7 agonist” (priority 2014, dated 2018)
